One assay concerns the target T1, human FGFR4 (Homo sapiens, UniProt P22455).
T1 construct: human FGFR4 cytoplasmic domain (460-802); GST (N); purchased Carna Biosciences 08-136
Kind of assay: FGFR4 enzymatic assay (HTRF KinEASE-TK). The format is biochemical. To be noted: wild-type human FGFR4 cytoplasmic domain (460-802), GST-tag; 60 min preincubation at 25° C.; ATP 200 μM; read-out: Potency (IC50), FGFR4 enzymatic assay. How it is done: The ability of compounds to inhibit human FGFR4 tyrosine kinase activities was determined using a commercially available HTRF® KinEASE™-TK kit (CISBIO, Cat #62TK0PEC) according to the manufacturer's protocol. Wild-type human FGFR4 cytoplasmic domain (460-802) with N-terminal GST-tag was purchased from Carna Biosciences (Carna, Cat #08-136) and used in the kinase enzymatic assay. This assay, run in a 384-well plate format, is a generic method for measuring tyrosine kinase activities using one substrate and a universal detection system. It involves two steps: (1) Enzymatic step: the biotin labeled TK Substrate is incubated with the kinase and then ATP is added to start the enzymatic reaction; during this step, FGFR4 will phosphorylate the TK Substrate-biotin. (2) Detection step: The TK-Antibody labeled with Eu^3+-Cryptate can recognize the phosphorylated TK Substrate-biotin. When the streptavidin-XL665 conjugate binds the biotin, a FRET signal will be detected. Briefly, human FGFR4 (0.25 μg/ml) in the enzymatic buffer solutions (250 mM HEPES, pH7.0, 0.1% NaN3, 0.05% BSA, 0.5 mM Orthovanadate) were mixed with various concentrations of the test compound (dissolved in 100% DMSO). These solutions were incubated for 60 min at 25° C., and subsequently a mixture of substrate peptide and ATP was added with the final peptide and ATP concentrations at 0.3 μM and 200 μM respectively. The final reaction mixture of enzyme-substrate-ATP-compound was incubated for 40 min at 37° C. Meanwhile the detection mixture containing the TK-antibody and Streptavidin-XL665 diluted in the detection buffer (50 mM HEPES, pH7.0, with additives) was prepared, and added to the reaction mixture at final concentrations of 25 nM and 18.5 nM respectively. After incubation for 60 min at 25° C., the FRET signal of the final solution was measured at 665 nm and 612 nm emissions on a TECAN Spark 10M instrument (TECAN). The percent (%) inhibition at each concentration of a compound was calculated relative to the FRET signal in the Max and Min control wells contained within each assay plate. The Max control wells contained enzyme and substrate as 0% inhibition, and the Min control wells only contained substrate without enzyme as 100% inhibition. The concentrations and percent inhibition values for a test compound are plotted and the concentration of the compound required to achieve 50% inhibition (IC50) was determined with a four-parameter logistic dose response equation. Dose-response curves were generated using Prism (GraphPad Software, La Jolla, CA, US) to calculate IC50 values for each compound tested.
A general note: TR-FRET usually uses a lanthanide donor and a delayed reading to cut background.

The next assay relates to Hep3B cells. The experiment in a line: Cell-based FGFR4 proliferation assay (CellTiter-Glo). To be noted: incubated with test compound for 3 days, CellTiter-Glo luminescence, read-out: Potency (IC50), Hep3B cell proliferation. How it is done: Hepatocellular carcinoma cell line Hep3B (ATCC, Cat #HB-8064) were cultured at 37° C., 5% CO2 in ATCC-formulated Eagle's Minimum Essential Medium supplemented with 10% fetal bovine serum; 1% Penicillin-Streptomycin.
(§1) Cell line: Hepatocellular carcinoma cell line Hep3B (ATCC, Cat #HB-8064).
In this assay, Hep3B cells are seeded in 384-well microplates, and after exposure to experimental compounds for […], CellTiter-Glo® Luminescent Cell Viability Assay kit (Promega, Cat #G7572) are used to determine the number of viable cells in the culture based on quantitation of the ATP present, which signals the presence of metabolically active cells. Luminescent signal is proportional to the amount of ATP present. The amount of ATP is directly proportional to the number of cells present in the culture, allowing drug-induced effects on cell proliferation to be measured.
Hep3B cells were plated at a density of 4×10^4/ml cells in a 384-well black/clear microplate with 20 μL per well of MEM Medium (Gibco Cat. #11095-080) supplemented with 10% fetal bovine serum; 1% Penicillin-Streptomycin, and cultured overnight at 37° C., 5% CO2. Various concentrations of the test compound (dissolved in 100% DMSO) were added to the wells of the cell plate. The cells were incubated with the test compound for 3 days at 37° C., 5% CO2. 5 μL of CellTiter-Glo® Reagent was added to each well of the cell plate. The cell plate was incubated for 5 min at 25° C. on a plate shaker (IKA MTS 2/4) at 300 rpm. Luminescence signals were read on a TECAN Spark 10M instrument (TECAN). […] The concentrations and percent inhibition values for a test compound were plotted and the concentration of the compound required to achieve 50% inhibition (IC50) is determined with a four-parameter logistic dose response equation. Dose-response curves were generated using Prism (GraphPad Software, La Jolla, CA, US) to calculate IC50 values for each compound tested.

Assay [1] has as its system MAPK phosphorylation in Hep3B cells stimulated with FGF19. The experiment in a line: FGFR4 pMAPK AlphaLISA SureFire Ultra assay. In kind it is cell-based. To be noted: serum-starved, compound 1 hour, FGF19 100 ng/ml for 4 hours, read-out: Potency (IC50), FGFR4 pMAPK AlphaLISA.
Excerpt: as §1
In normal liver, circulating FGF19 drives liver cell proliferation and regulates bile acid production. However aberrant expression of FGF19 in the liver drives HCC tumorigenesis, upregulates MAPK phosphorylation in FGF19-amplified malignant liver cells. AlphaScreen SureFire technology allows the detection of phosphorylated proteins in cellular lysates in a highly sensitive, quantitative assay. In these assays, sandwich antibody complexes, which are only formed in the presence of analyte, are captured by AlphaScreen Donor and Acceptor beads, bringing them into close proximity. The excitation of the Donor bead provokes the release of singlet oxygen molecules that triggers a cascade of energy transfer in the Acceptor beads, resulting in the emission of light at 520-620 nm.
Hep3B cells were plated at a density of 1×10^4/ml cells in a 96-well plate (Corning #3599), with 100 uL per well of MEM Medium (Gibco Cat #11095-080) supplemented with 10% fetal bovine serum; 1% Penicillin-Streptomycin, and cultured overnight at 37° C., 5% CO2. Starve Hep3B cells in serum-free medium (SFM) supplemented with 0.2% BSA and incubate the cells again overnight at 37° C., 5% CO2. Various concentrations of the test compound (prepared in 2x SFM) were added to the wells of the cell plate and then incubated for 1 hour at 37° C., 5% CO2. 50 μL of FGF19 in SFM was added to each well of the cell plate with a final FGF19 concentration of 100 ng/ml, and cells treated with FGF19 were stimulated for 4 hours at 37° C., 5% CO2. 5 μL of freshly prepared Donor Mix and Acceptor Mix were sequentially added to the cell plate, each followed with 1 hour of incubation at 25° C., 5% CO2. Read the cell plate on an Alpha Technology-compatible plate reader at 570 nm AlphaScreen, using standard AlphaLISA settings. The percent (%) inhibition=((ZPE−Alpha-Signal)/(ZPE−HPE))*100% where the meanings of HPE and ZPE are as provided below.
HPE: Hundred Percent Effect, negative control well without FGF19 nor compound. Final concentration of DMSO is 0.1%.
ZPE: Zero Percent Effect, positive control well without compound. Final concentration of FGF19 is 100 ng/mL, DMSO is 0.1%.
The concentrations and percent inhibition values for a test compound were plotted and the concentration of the compound required to achieve 50% inhibition (IC50) was determined with a four-parameter logistic dose response equation. Dose-response curves were generated using Prism (GraphPad Software, La Jolla, CA, US) to calculate IC50 values for each compound tested.
A general note: In Alpha technology, singlet oxygen from a donor bead excites a nearby acceptor bead.

Drawing on patent US11976058B2, “Aromatic derivatives, preparation methods, and medical uses thereof” (Bioardis LLC, priority 2019, dated 2024), this text covers IC50 for ten compounds.

Molecules are shown by their SMILES. pIC50: −log10 of the molar value. Where two headings read alike, the source gives them in different places.

T1 sequence (P22455 460-802): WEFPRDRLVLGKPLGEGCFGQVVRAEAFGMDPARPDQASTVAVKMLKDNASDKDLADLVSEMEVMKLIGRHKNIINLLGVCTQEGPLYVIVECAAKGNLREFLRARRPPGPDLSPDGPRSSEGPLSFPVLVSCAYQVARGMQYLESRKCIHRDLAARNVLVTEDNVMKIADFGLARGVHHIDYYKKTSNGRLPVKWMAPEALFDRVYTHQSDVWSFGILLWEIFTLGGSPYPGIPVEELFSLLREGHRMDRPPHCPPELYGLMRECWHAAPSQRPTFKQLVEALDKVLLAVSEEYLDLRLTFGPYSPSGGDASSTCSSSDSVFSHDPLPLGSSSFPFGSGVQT

With `C=CC(=O)Nc1cnn(C)c1-c1n[nH]c2c1CCC(c1c(F)c(OC)cc(OC)c1F)C2` (single isomer, unassigned) [Compound S1-P1, N-(5-(6-(2,6-difluoro-3,5-dimethoxyphenyl)-4,5,6,7-tetrahydro-1H-indazol-3-yl)-1-methyl-1H-pyrazol-4-yl)acrylamide], the pIC50 at human FGFR4 was above 8.00; with Hep3B cells (Homo sapiens, Hep3B, 72 h), 7.00 to 8.00; in assay [1] (Homo sapiens, Hep3B), above 8.00.

Take `[2H]C([2H])([2H])n1ncc(NC(=O)C=C)c1-c1n[nH]c2c1CCC(c1cc(OC)cc(OC)c1F)C2` (single isomer, unassigned) [Compound S16-P3, N-(5-(6-(2-fluoro-3,5-dimethoxyphenyl)-4,5,6,7-tetrahydro-1H-indazol-3-yl)-1-(methyl-d3)-1H-pyrazol-4-yl)acrylamide]: the pIC50 at human FGFR4 is 7.00 to 8.00; in the assay on Hep3B cells (Homo sapiens, Hep3B, 72 h), below 7.00; in assay [1] (Homo sapiens, Hep3B), 7.00 to 8.00.

With `[2H]C([2H])([2H])Oc1cc(OC([2H])([2H])[2H])c(F)c(C2CCc3c(-c4c(NC(=O)C=C)cnn4C)n[nH]c3C2)c1F` (single isomer, unassigned) [Compound S8-P2, N-(5-(6-(2,6-difluoro-3,5-bis(methoxy-d3)phenyl)-4,5,6,7-tetrahydro-1H-indazol-3-yl)-1-methyl-1H-pyrazol-4-yl) acrylamide], the pIC50 is above 8.00 on human FGFR4, 7.00 to 8.00 in the assay with Hep3B cells and above 8.00 in assay [1].

With `C=CC(=O)Nc1cnn(C)c1-c1n[nH]c2c1CCC(c1c(F)c(OC)cc(OC)c1F)C2` (single isomer, unassigned) [Compound S1-P2, N-(5-(6-(2,6-difluoro-3,5-dimethoxyphenyl)-4,5,6,7-tetrahydro-1H-indazol-3-yl)-1-methyl-1H-pyrazol-4-yl)acrylamide], the figures for the pIC50 (at human FGFR4; in the assay on Hep3B cells; in assay [1]) were above 8.00, 7.00 to 8.00 and above 8.00, respectively.

In the case of `C=CC(=O)Nc1cnn(C)c1-c1n[nH]c2c1CCC(c1c(F)c(OC)cc(OC)c1F)=C2` [Compound S5-P1, N-(5-(6-(2,6-difluoro-3,5-dimethoxyphenyl)-4,5-dihydro-1H-indazol-3-yl)-1-methyl-1H-pyrazol-4-yl) acrylamide], the pIC50 on human FGFR4 was 7.00 to 8.00; in the assay with Hep3B cells (Homo sapiens, Hep3B, 72 h), 7.00 to 8.00; in assay [1] (Homo sapiens, Hep3B), above 8.00.

In the case of `C=CC(=O)Nc1cnn(C)c1-c1n[nH]c2c1CCC(c1cc(OC)cc(OC)c1F)=C2` [Compound S5-P2, N-(5-(6-(2-fluoro-3,5-dimethoxyphenyl)-4,5-dihydro-1H-indazol-3-yl)-1-methyl-1H-pyrazol-4-yl)acrylamide], the pIC50 is 7.00 to 8.00 at human FGFR4; below 7.00 in the assay with Hep3B cells (Homo sapiens, Hep3B, 72 h); 7.00 to 8.00 in assay [1] (Homo sapiens, Hep3B).

As to `C=CC(=O)Nc1cnn(C)c1-c1n[nH]c2c1COC(c1c(F)c(OC)cc(OC)c1F)C2` (single isomer, unassigned) [Compound S6-P2, N-(5-(6-(2,6-difluoro-3,5-dimethoxyphenyl)-1,4,6,7-tetrahydropyrano[4,3-c]pyrazol-3-yl)-1-methyl-1H-pyrazol-4-yl) acrylamide], the pIC50 is 7.00 to 8.00 on human FGFR4; below 7.00 with Hep3B cells; 7.00 to 8.00 in assay [1] (Homo sapiens, Hep3B).

As to `[2H]C([2H])([2H])Oc1cc(OC([2H])([2H])[2H])c(F)c(C2CCc3c(-c4c(NC(=O)C=C)cnn4C)n[nH]c3C2)c1` (single isomer, unassigned) [Compound S8-P4, N-(5-(6-(2-fluoro-3,5-bis(methoxy-d3)phenyl)-4,5,6,7-tetrahydro-1H-indazol-3-yl)-1-methyl-1H-pyrazol-4-yl) acrylamide], the pIC50 on human FGFR4 was 7.00 to 8.00; in the assay with Hep3B cells, below 7.00; in assay [1], 7.00 to 8.00.

On to `C=CC(=O)Nc1cn[nH]c1-c1n[nH]c2c1CCCC(c1cc(OC)cc(OC)c1F)C2` (single isomer, unassigned) [Compound S11-P3, N-(5-(7-(2-fluoro-3,5-dimethoxyphenyl)-1,4,5,6,7,8-hexahydrocyclohepta[c]pyrazol-3-yl)-1H-pyrazol-4-yl)acrylamide], for which the pIC50 on human FGFR4 is above 8.00; with Hep3B cells (Homo sapiens, Hep3B, 72 h) it was 7.00 to 8.00; in assay [1] (Homo sapiens, Hep3B), above 8.00.

For `[2H]C([2H])([2H])Oc1cc(OC([2H])([2H])[2H])c(F)c(C2CCc3c(-c4c(NC(=O)C=C)cnn4C)n[nH]c3C2)c1` (single isomer, unassigned) [Compound S8-P3, N-(5-(6-(2-fluoro-3,5-bis(methoxy-d3)phenyl)-4,5,6,7-tetrahydro-1H-indazol-3-yl)-1-methyl-1H-pyrazol-4-yl) acrylamide], the pIC50 at human FGFR4 is 7.00 to 8.00; with Hep3B cells (Homo sapiens, Hep3B, 72 h) it was below 7.00; in assay [1] (Homo sapiens, Hep3B), 7.00 to 8.00.
